Columns and labels:
[1] = tested on: COS-7 cells; experiment: Transfection of COS-7 cells with β-galactosidase reporter plasmid; type: cell-based
Method: Transfections are carried out following standard protocols as is described in EP 0755924. In numerous publications variations of transfection protocols are given. A person acquainted with the field of non-viral transfections, in particular transfections using cationic amphiphiles will be able to use the cationic amphiphiles of the invention in transfection methods known per se. In standard experiments COS-7 cells are transfected with plasmid DNA containing the β-galactosidase reporter gene. Upon successful transfection the cell produces the enzyme β-galactosidase whose activity can be easily measured. […] Toxicity of the cationic amphiphiles towards the cells can be monitored qualitatively and quantitatively by visual inspection of the cells and by a protein determination.
[…] The plasmid concentration was determined by measuring the absoption at 260 nm using the relation 1.0 OD = 50 µg/ml. […]
The complex of cationic amphiphile/DOPE (1:1) with pCMV β-gal was prepared at the charge ratio 2.5:1 (15 nmol lipid and 1 µg DNA), in 100µl 10 mM HEPES (pH=7.4, 150 mM NaCl). […] Control wells underwent identical steps except that no cationic amphiphile was added. β-galactosidase activity was observed whereas in control wells no activity was detected. […]

[2] = tested on: COS-7 cells; experiment: Toxicity of cationic amphiphile towards the cells (protein determination); type: cell-based; details: protein determination compared with control wells
Method: Transfections are carried out following standard protocols as is described in EP 0755924. In numerous publications variations of transfection protocols are given. A person acquainted with the field of non-viral transfections, in particular transfections using cationic amphiphiles will be able to use the cationic amphiphiles of the invention in transfection methods known per se. In standard experiments COS-7 cells are transfected with plasmid DNA containing the β-galactosidase reporter gene. Upon successful transfection the cell produces the enzyme β-galactosidase whose activity can be easily measured. Other plasmids comprising alternative reporter genes such as the gene encoding Green Fluoerscent Protein or Chloroamphenicol Acetyl Transferase are suited as well. For analyzing stable transfection a plasmid containing the neomycin resistance gene can be used. Toxicity of the cationic amphiphiles towards the cells can be monitored qualitatively and quantitatively by visual inspection of the cells and by a protein determination.
The complex of cationic amphiphile/DOPE (1:1) with pCMV β-gal was prepared at the charge ratio 2.5:1 (15 nmol lipid and 1 µg DNA), in 100µl 10 mM HEPES (pH=7.4, 150 mM NaCl). […] Control wells underwent identical steps except that no cationic amphiphile was added. β-galactosidase activity was observed whereas in control wells no activity was detected.

[3] = Solvent scope of N,N'-dialkylaldaramides or N,N'-dialkylpentaramides (gelation behaviour in solvents); type: physicochemical
Description: It will be understood that the use of the present gelling agents or thickeners to prepare a gel or to thicken a composition is also encompassed by the invention. As is well-known, gelling behavior of compounds or compositions is highly unpredictable. […] Preferably, the gelling phenomenon is thermoreversible.
(§1) Preferred examples include aromatic and non-aromatic hydrocarbons, alcohols, ethers, esters, aldehydes, alkanoic acids, epoxides, amines, halogenated hydrocarbons, silicon oils, vegetable oils, phosphoric esters, sulfoxides and mixtures thereof. The compound also produces a gel in hydrophilic solvents such as water. The choice of composition for gelling can be tuned to the invented use. For instance in situations where clinical application of a vehicle of the invention is intended biocompatibility of the composition is preferred. In order to obtain a gel, the gelling agent or thickener is preferably mixed with the composition to be transformed to a gel in an amount of between 0.01 and 50 wt.%, based on the weight of the composition. In a preferred embodiment the mixture of the gelling agent or thickener and the composition is heated to allow for an even better gel formation or thickening. Typically, the heating will involve raising the temperature of the mixture to about 30 - 175 °C until a clear solution is obtained. In an alternative embodiment, the gelling agent is first dissolved in a polar or apolar solvent and then added to or sprayed into a composition or solvent to be converted into a gel.

[4] = Concentration range of N,N'-dialkylaldaramides or N,N'-dialkylpentaramides in solvents; type: physicochemical
Description: as §1

[5] = Gelation experiment with dithienylcyclopentene derivatives (heat, cool, no gravitational flow; UV-vis/CD); type: physicochemical; details: for Solvents in which gelation did occur: cooling to room temperature, 1 ml solvent
Method: In a typical gelation experiment, a carefully weighed amount of the dithienylcyclopentene derivative under investigation and 1 ml of the solvent are placed in a test tube, which is sealed and then heated until the compound is dissolved. The solution is allowed to cool to room temperature. […] The gelation process could be followed by UV-vis and CD spectroscopy as depicted in Figure 23. […] Increasing the concentration to 1.8 mM causes gelation of the solvent, which is accompanied by a change of the UV-visible spectrum, together with the appearance of a strong CD signal at 323 nm (Figure 22 A and B). Similar changes in the UV-vis and CD spectrum are observed upon gelation of the 1.8 mM solution of D in toluene by cooling to a temperature below the sol-gel phase transition(from here on referred to as gel(o). From a plot of the increase of the CD signal versus the temperature the sol-gel phase transition temperature of gel(o) was determined to be 29°C for a 1.8 mM solution of D in toluene.

[6] = Photoswitching of a gel of compound D; type: physicochemical
Method: In a typical photoswitching experiment a solution (1.8 mM) of Compound D in toluene was prepared by cooling from 70°C to the desired temperature (typically between 30°C and 60°C, i.e. above the gel-sol phase transition temperature of the open form of D) in a cuvette of 1 mm path length. This solution was then irradiated at λ1 = 313 nm to convert the ring-open form of Compound D to the ring-closed form. By using a 150 W Xe lamp and a 313 nm bandpass filter, the photostationary state (PSS) was reached typically within 10 minutes, which consist of 60mol% of the closed form and 40mol% of the open form.
Gels of the closed form of D can also be dissolved by converting the closed form to the open form by irradiation with light of wavelength □□. Irradiation of gel(c,I) or gel(c,II) with □□ > 450 nm at while keeping the temperature between 30°C and 60°C causes dissolution of the gel to give a solution of the open form D, of which the UV-vis and CD spectra are identical to that of the starting solution. This process of gelation-dissolution by alternating irradiations with UV (313 nm) and Vis (> 450 nm) light can be repeated many times, showing that the photo-induced gelation process is fully reversible. In another experiment a solution (1.8 mM) of Compound D in toluene was prepared by cooling from 70°C to a temperature below the gel-sol phase transition temperature of the open form of (typically between 20°C and 29°C) in a cuvette of 1 mm path length.

[7] = 1.8 mM in toluene, irradiation at 313 nm

For “1-(9'-cis-octadecenyl)-4-(10"-cis-nonadecenyl) pyridinium Chloride”, the β-galactosidase activity ([1]; cationic amphiphile/DOPE (1:1) with pCMV β-gal, charge ratio 2.5:1, assay 48 later) was “observed”, the “β-galactosidase activity compared with Lipofectin™” value ([1]; cationic amphiphile/DOPE (1:1), charge ratio 2.5:1) was “substantially higher” and the “toxicity towards the cells” value [2] was “no toxicity”.
In the case of `CC(C)=CCCC(C)CCNC(=O)[C@@H](O)[C@@H](O)[C@H](O)[C@@H](O)C(=O)NCCC(C)CCC=C(C)C` (stereo partly shown) [CitGluCit, dicitronellyl glucaramide], the Solvent scope ([3]; Cyclohexane) is reported as “g. ,c*”.
In the case of `CCCCCCCCCCCCNC(=O)[C@@H](O)[C@H](O)[C@H](O)[C@@H](O)C(=O)NCCCCCCCCCCCC` [Compound 12Gal12, didodecyl galactaramide], the Solvent scope ([3]; 1,2-Dichloro-ethane) is reported as “n.s”, the Solvent scope ([3]; Cyclohexane) is reported as “n.s” and the Solvent scope ([3]; Ethanol) is reported as “n.s”. The Solvent scope ([3]; Toluene) was “n.s”, the Solvent scope ([3]; n-Butylacetate) was “n.s” and the Solvent scope ([3]; water) was “n.s”.
For `O=C(NC1CCCCC1)[C@@H](O)[C@@H](O)[C@H](O)[C@@H](O)C(=O)NC1CCCCC1` [Compound C6GluC6, dicyclohexyl glucaramide], the Concentration range ([4]; 1,2- Dichloroethane) was <5.0%, the Concentration range ([4]; Cyclohexane) was <2.5% and the Concentration range ([4]; Dow Corning 702) was <2.5%. The Concentration range ([4]; Methyllaurate) was <2.5%, the Concentration range ([4]; Toluene) was <2.5% and the Concentration range ([4]; n-Butylacetate) was <2.5%. For the same compound, the Solvent scope ([3]; 1,2-Dichloro-ethane) was “g/c”, the Solvent scope ([3]; Dimethylsulfoxide) was “g/c” and the Solvent scope ([3]; Ethanol) was “g/c”. For the same compound, the Solvent scope ([3]; water) was “n.s”.
With `O=C(NC1CCCCCCCCCCC1)[C@@H](O)[C@@H](O)[C@H](O)[C@@H](O)C(=O)NC1CCCCCCCCCCC1` [Compound C12GluC12, dicyclododecyl glucaramide] the Concentration range ([4]; 1,2- Dichloroethane) was <50%, the Concentration range ([4]; Cyclohexane) was <5% and the Concentration range ([4]; Dow Corning 702) was <50%. For the same compound, the Concentration range ([4]; Methyllaurate) was <5%, the Concentration range ([4]; Toluene) was <50% and the Concentration range ([4]; n-Butylacetate) was <50%. The Solvent scope ([3]; Dimethylsulfoxide) was “g/c”, the Solvent scope ([3]; Ethanol) was “g/c” and the Solvent scope ([3]; water) was “n.s”.
With `Cc1sc(C(=O)Nc2ccccc2)cc1C1=C(c2cc(C(=O)Nc3ccccc3)sc2C)CCC1` [Compound C, 1,2-Bis(5'-(anilinocarbonyl)-2'-methyl-thien-3'-yl) cyclopentene] the “Solvents in which gelation did occur” value [5] was 1-phenyloctane, toluene, n-butylether, benzene, tetralin.
With `Cc1sc(C(=O)N[C@H](C)c2ccccc2)cc1C1=C(c2cc(C(=O)N[C@H](C)c3ccccc3)sc2C)CCC1` [Compound D, 1,2-Bis(2'-methyl-5'-{[((R)-1-phenylethyl)amino]carbonyl}thien-3'-yl)cyclopentene] the “sol-gel phase transition temperature of gel(c,I)” value ([6]; 1.8 mM in toluene after irradiation at 313 nm) was 62 °C, the “Time without gel formation, solutions kept in the dark” value ([6]; 1.8 mM in toluene, between 20°C and 29°C, not irradiated) was > 1 h and the “closed form in the photostationary state (PSS)” value [6, 7] was 60 mol%. The “open form in the photostationary state (PSS)” value [6, 7] was 40 mol%, the “Time to reach the photostationary state (PSS)” value ([6]; 1.8 mM in toluene, irradiation at 313 nm, 150 W Xe lamp) was ≤ 10 min and the “Increase of thermal stability compared to gel(o)” value ([6]; gel(c,I), toluene) was “more than 30 °C”. The “sol-gel phase transition temperature of gel(o)” value ([5]; 1.8 mM solution in toluene, open form, from CD signal versus temperature) was 29 °C, the “Concentration that causes gelation of the solvent” value ([5]; Toluene) was 1800 µM and the “Solvents in which gelation did occur” value [5] was “cyclohexane, 1-phenyloctane, toluene, n-butyl ether, benzene, tetralin”.
With `Cc1sc(C(=O)N[C@H](C)C2CCCCC2)cc1C1=C(c2cc(C(=O)N[C@H](C)C3CCCCC3)sc2C)CCC1` [Compound E, 1,2-Bis(2'-methyl-5'-{[((R)-1-cyclohexylethyl)amino]carbonyl}thien-3'-yl)cyclopentene] the “Solvents in which gelation did occur” value [5] was “hexadecane, cyclohexane, 1-phenyloctane, toluene, n-butylether, benzene, tetralin, 1,4-dioxane, and n-butyl acetate”.

— patent EP1350507A1, “Delivery of a substance to a pre-determinated site” (Applied NanoSystems B.V., priority 2002, dated 2003)
